Assays:
[1] = target: T1, Mitogen-activated protein kinase 14 (Homo sapiens, UniProt Q16539); test: Inhibition of p38alpha-dependent TNFalpha production in human whole blood
[2] = target: T1, Mitogen-activated protein kinase 14; test: Inhibition of p38alpha by immunosorbent based kinase assay

T1 sequence (Q16539 whole entry): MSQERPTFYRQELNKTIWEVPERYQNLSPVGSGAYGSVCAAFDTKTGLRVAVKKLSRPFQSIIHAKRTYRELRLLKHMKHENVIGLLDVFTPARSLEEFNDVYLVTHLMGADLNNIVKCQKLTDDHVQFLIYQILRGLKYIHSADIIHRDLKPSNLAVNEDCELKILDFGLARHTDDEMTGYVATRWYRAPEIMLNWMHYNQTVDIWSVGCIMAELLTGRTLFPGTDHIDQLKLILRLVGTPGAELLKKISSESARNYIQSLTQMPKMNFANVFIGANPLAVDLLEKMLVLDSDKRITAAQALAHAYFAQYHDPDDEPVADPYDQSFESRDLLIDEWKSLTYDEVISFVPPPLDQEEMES

Row | SMILES | IC50 [1] [nM] | IC50 [2] [nM]
1 | CC1(C)OC[C@@H](COc2ccc3c(c2)C(=O)c2ccc(Nc4ccc(F)cc4F)cc2CC3)O1 | 230 | 40
2 | COc1ccc2c(c1)C(=O)c1ccc(Nc3ccccc3)cc1CC2 | 3200 | 70
3 | O=C1c2ccc(Nc3ccccc3)cc2CCc2ccc(O)cc21 | 2200 | 60
4 | COc1ccc2c(c1)C(=O)c1ccc(Nc3ccccc3N)cc1CC2 | 1500 | 40
5 | O=C1c2ccc(Nc3ccc(F)cc3F)cc2CCc2cc(OCCO)ccc21 | 4700 | 20
6 | COc1ccc2c(c1)CCc1cc(Nc3ccccc3N)ccc1C2=O | 12300 | 70
7 | O=C1c2ccc(Nc3ccc(F)cc3F)cc2CCc2ccc(O)cc21 | 700 | 20
8 | Nc1ccccc1Nc1ccc2c(c1)CCc1ccc(OC[C@@H](O)CO)cc1C2=O | 170 | 8
9 | Nc1ccccc1Nc1ccc2c(c1)CCc1cc(OC[C@H](O)CO)ccc1C2=O | 6000 | 30
10 | O=C1c2ccc(Nc3ccc(F)cc3F)cc2CCc2ccc(OCCN3CCOCC3)cc21 | 80 | 10
11 | O=C1c2ccc(Nc3ccc(F)cc3F)cc2CCc2cc(OCCCO)ccc21 | 19500 | 30
12 | COc1ccc2c(c1)C(=O)c1ccc(Nc3ccccc3OC)cc1CC2 | 7600 | 380
13 | O=C1c2ccc(Oc3ccc(F)cc3F)cc2CCc2ccc(OCCN3CCOCC3)cc21 | 4500 | 80
14 | O=C1c2ccc(Nc3ccc(F)cc3F)cc2CCc2ccc(OCC[C@@H](O)CO)cc21 | 80 | 10
15 | COc1ccc2c(c1)C(=O)c1ccc(Nc3ccc(F)c(F)c3F)cc1CC2 | 81000 | 3530
16 | COc1ccc2c(c1)C(=O)c1ccc(Oc3ccc(F)cc3F)cc1CC2 |  | 100
17 | O=c1c2ccc(Nc3ccc(F)cc3F)cc2ccc2ccc(O)cc12 | 26700 | 300
18 | COc1ccc2c(c1)C(=O)c1ccc(Nc3ccc(F)cc3F)cc1CC2 | 1200 | 20
19 | O=C1c2ccc(Oc3ccc(F)cc3F)cc2CCc2ccc(OC[C@@H](O)CO)cc21 | 6700 | 40
20 | CC1(C)OC[C@H](COc2ccc3c(c2)CCc2cc(Nc4ccccc4N)ccc2C3=O)O1 | 93600 | 80
21 | O=C1c2ccc(Nc3ccccc3Cl)cc2CCc2ccc(O)cc21 | 7500 | 140
22 | COc1ccc2c(c1)C(=O)c1ccc(Nc3ccccc3F)cc1CC2 | 4900 | 70
23 | O=C1c2ccc(Nc3ccc(F)cc3Cl)cc2CCc2ccc(O)cc21 | 3800 | 560
24 | O=C1c2ccc(Nc3ccc(F)cc3F)cc2CCc2cc(OCCN3CCOCC3)ccc21 | 40000 | 20
25 | COc1ccc2c(c1)C(=O)c1ccc(Nc3ccc(F)cc3N)cc1CC2 | 1900 | 40
26 | COc1ccc2c(c1)CCc1cc(Nc3ccc(F)cc3F)ccc1C2=O | 10200 | 20
27 | CC1(C)OC[C@@H](COc2ccc3c(c2)C(=O)c2ccc(Nc4ccccc4N)cc2CC3)O1 | 190 | 60

From ChEMBL document CHEMBL2150974 (J Med Chem, 2012)
